# Data: PMC8878324, “Evaluation of New Antimicrobial Agents Based on tris(1H-Indol-3-yl)methylium Salts: Activity, Toxicity, Suppression of Experimental Sepsis in Mice” (Pharmaceuticals, 2022)
# Read-outs that look alike come from different tables or passages of the source.
# What was measured:
# Format in all cases: in vivo
# S. aureus 10 = assay: Model of staphylococcal sepsis in mice; conditions: for Death (%) / Survival Rate (%): 14 days; for Dead animals/survivors: 3 mg/kg
# Method: To determine the ability of drugs to suppress staphylococcal sepsis, a clinical isolate of S. aureus 10, lacking drug resistance and adapted for use in animals, was used. Animals, divided into several experimental groups, were intravenously infected with a lethal dose of S. aureus (0.1 mL each) (Groups 1–5). […] Along with the testing of compounds of the trisndolylmethylium class, a similar experiment was carried out with levofloxacin, taken as a reference drug for a separate group of animals (Group 4). The control group of animals received an intravenous injection of 5% glucose solution instead of the tested preparations (Group 5). Another control group, which also received a single injection of 5% glucose solution, consisted of animals that were not exposed to infection (Group 6). To study each drug, 110–150 animals were required, which were divided into small subgroups of 10 mice each to test various doses of the compounds studied. The number of dead animals and the time of their death were recorded daily, and the appearance of the animals and their weight were assessed. The duration of the experiment was 14 days.
# (§1) The study was conducted on adult female SHK mice (18–20 g) obtained from the animal breeding unit of the FMBA (Scientific Center for Biomedical Technologies of the Federal Biomedical Agency, Moscow, Russia). The animals were randomly divided into groups (n = 6 for the study of acute toxicity, n = 10 (or 8) to study the efficacy of suppressing staphylococcal sepsis). The study of the effectiveness of drugs in the treatment of staphylococcal sepsis required the use of 110–175 mice for each drug, 10 animals per group. The animal study was approved by the Ethics of Animal Experimentation of Gause Institute of New Antibiotics (protocol No 13/2019).
# The experiment used a strain of S. aureus 10, having no drug resistance and adapted for use in animals. Initially, the 100% lethal dose (LD100) was determined for this pathogen strain in SHK mice, i.e., the dose of the pathogen at which the death of 100% of the animals was recorded. LD100 dose of staphylococcus detected in the experiment was 8.0 × 10^8 CFU/mouse, which was then used for infecting animals.
# The chemotherapeutic efficacy of tris(indolyl)methane derivatives was determined in a model of staphylococcal sepsis in mice. Mice of the SHK colony, weighing 18–20 g, were infected intravenously (into the tail vein) with a lethal dose of staphylococcus (0.1 mL of solution). One hour after infection, mice were injected intravenously (0.2 mL of solution each) with the tested tris(indolyl)methane derivatives in the range of doses from 0.1 to 40 mg/kg. For tested drugs, we used solutions prepared in 5% glucose solution. The study of the effectiveness of each drug was conducted on 115–155 mice (10 mice per group). The duration of the experiment was 14 days. The number of dead animals and the time of their death were recorded daily, and the body weight of the animals was recorded three times a week. Their feed intake was monitored, and clinical signs of animal health were assessed daily.
# To determine the effectiveness of the tested drugs, 50% effective doses (ED50) were used, which was determined by the Behrens method (frequency accumulation method), as well as by the Litchfield and Wilcoxon method using the StatPlus 2006 software. For all data, the mean and standard deviation were calculated. The differences were defined as significant at p ≤ 0.05.
# [1] = Acute toxicity study, intravenous; conditions: female, SHK, mouse, in vivo, mice, single intravenous; for MTD: read-out: MTD (LD10)
# Method: (§2) In toxicological experiments with each compound, 72 to 108 animals were used and divided into 8 or 9 experimental groups (6 to 12 mice each), in which the animals received various doses of the tested compounds. There was also a control group of animals, which was injected with the corresponding solvent instead of the experimental compound, and a control group of intact animals. The prepared substances were injected into the animals intravenously (into the tail vein); the dose range was from 1.0 to 100 mg/kg.
# as §1
# (§3) To prepare solutions of preparations suitable for intravenous administration, dried test compounds with a purity of at least 99% were dissolved in a 5% glucose solution for intravenous administration at a concentration of 3.2 or 6.4 mg/mL. The solutions were sterilized by filtration through Sterivex 0.22 μm filters (Millipore, Burlington, MA, USA). Sterile solutions of drugs with a reduced concentration were then prepared, which allowed for the introduction ofvarious doses of drugs with the same volume (0.2 mL) of solutions. The test preparations were stored at a temperature no higher than 25 °C.
# (§4) The study of acute toxicity of each drug was conducted on 72 mice (6 mice per group) using a solution of the test drug prepared in 5% glucose solution. The drug was injected into the tail vein of the animals (0.2 mL) using a syringe with a metal needle in a dose range of 1.0 mg/kg to 70 mg/kg.
# (§5) From the first day after administration, the animals were under continuous observation. The number of dead animals and the time of their death were recorded daily. The body weight of the animals and their food consumption was recorded once a week, and the clinical signs of the animals’ health were assessed daily. The duration of observation of the animals was at least 30 days after the last death of the animal. Doses characterizing the toxicity of drugs were calculated by the Litchfield and Wilcoxon method using the StatPlus 2006 software AnalystSoft StatPlus—statistical analysis program, version 2006 (http://www.analystsoft.com/, accessed 11 January 2022). The mean and standard deviation were calculated for all data. The differences are defined as significant at p ≤ 0.05.
# SHK mice = assay: Acute toxicity study, intravenous; conditions: for time of death of animals after administration: in words; for LD16 / LD84 / LD100: single intravenous
# Method: as §2, §1, §3, §4, §5
# [2] = single i.v. 0.5 mg/kg 1 h after infection
# [3] = single i.v. 1.0 mg/kg 1 h after infection
# [4] = single i.v. 1.5 mg/kg 1 h after infection
# [5] = single i.v. 1.75 mg/kg 1 h after infection
# [6] = single i.v. 2.0 mg/kg 1 h after infection
# [7] = 3 mg/kg i.v., Double administration
# [8] = Staphylococcus aureus, 10, iv, 1 h
# [9] = single i.v. 3.0 mg/kg 1 h after infection
# [10] = single i.v. 5.0 mg/kg 1 h after infection
# [11] = single i.v. 7.0 mg/kg 1 h after infection
# [12] = single i.v. 9.0 mg/kg 1 h after infection
# [13] = single i.v. 11.0 mg/kg 1 h after infection
# [14] = single i.v. 13.0 mg/kg 1 h after infection
# [15] = single i.v. 4.0 mg/kg 1 h after infection
# [16] = single i.v. 6.0 mg/kg 1 h after infection
# [17] = single i.v. 10.0 mg/kg 1 h after infection
# [18] = single i.v. 15.0 mg/kg 1 h after infection
# [19] = single i.v. 20.0 mg/kg 1 h after infection
# [20] = single i.v. 25.0 mg/kg 1 h after infection
# [21] = single i.v. 30.0 mg/kg 1 h after infection
# [22] = single i.v. 35.0 mg/kg 1 h after infection
compound,measurement,setting,value
"CCCn1cc([C+](c2cn(CCC)c3ccccc23)c2cn(C3=C(N(C)C)C(=O)NC3=O)c3ccccc23)c2ccccc21 [Compound 3, 1-(4-Dimethylamino-2,5-dioxo-2,5-dihydro-1H-pyrrol-3-yl) -1H-indol-3-yl) bis(1-propyl-1H-indol-3-yl) methylium chloride]",ED50,"S. aureus 10; Staphylococcus aureus, 10, single intravenous administration 1 h after infection, read-out: ED50",1.09 mg/kg
same,"first mortality, day of the experiment",S. aureus 10; experimental group 3,6 to 7 days
same,"last death, day of the experiment",S. aureus 10; experimental group 3,12 days
same,Death (%),S. aureus 10; [2],70%
same,Survival Rate (%),S. aureus 10; [2],30%
same,Death (%),S. aureus 10; [3],50%
same,Survival Rate (%),S. aureus 10; [3],50%
same,Death (%),S. aureus 10; [4],40%
same,Survival Rate (%),S. aureus 10; [4],60%
same,Death (%),S. aureus 10; [5],10%
same,Survival Rate (%),S. aureus 10; [5],90%
same,Death (%),S. aureus 10; [6],0%
same,Survival Rate (%),S. aureus 10; [6],100%
same,LD50,[1],24.2 mg/kg
same,MTD,[1],16.9 mg/kg
same,lethal dose causing the death of more than 50% of the animals,SHK mice; intravenous,25 to 40 mg/kg
same,time of death of animals after administration,SHK mice; intravenous,during the first day after administration
same,LD16,SHK mice,18.5 mg/kg
same,LD84,SHK mice,29.8 mg/kg
same,LD100,SHK mice,32.6 mg/kg
"OCCCCCn1cc([C+](c2cn(CCCCCO)c3ccccc23)c2cn(CCCCCO)c3ccccc23)c2ccccc21.[Cl-] [Compound 1, tris(1-(5-Hydroxypentyl)-1H-indol-3-yl) methylium chloride]",Death (%),S. aureus 10; [7],75%
same,Survival Rate (%),S. aureus 10; [7],25%
same,Dead animals/survivors,"S. aureus 10; Double, day 0",0/8
same,Dead animals/survivors,"S. aureus 10; Double, day 3",0/8
same,Dead animals/survivors,"S. aureus 10; Double, day 4",1/7
same,Dead animals/survivors,"S. aureus 10; Double, day 6",3/5
same,Dead animals/survivors,"S. aureus 10; Double, day 7",4/4
same,Dead animals/survivors,"S. aureus 10; Double, day 8",4/4
same,Dead animals/survivors,"S. aureus 10; Double, day 9",5/3
same,Dead animals/survivors,"S. aureus 10; Double, day 10",6/2
same,Dead animals/survivors,"S. aureus 10; Double, day 12",6/2
same,Dead animals/survivors,"S. aureus 10; Double, day 14",6/2
same,Dead animals/survivors,"S. aureus 10; One-time, day 0",0/8
same,Dead animals/survivors,"S. aureus 10; One-time, day 3",1/7
same,Dead animals/survivors,"S. aureus 10; One-time, day 4",2/6
same,Dead animals/survivors,"S. aureus 10; One-time, day 6",4/4
same,Dead animals/survivors,"S. aureus 10; One-time, day 7",5/3
same,Dead animals/survivors,"S. aureus 10; One-time, day 8",5/3
same,Dead animals/survivors,"S. aureus 10; One-time, day 9",6/2
same,Dead animals/survivors,"S. aureus 10; One-time, day 10",7/1
same,Dead animals/survivors,"S. aureus 10; One-time, day 12",7/1
same,Dead animals/survivors,"S. aureus 10; One-time, day 14",7/1
same,Dead animals/survivors,"S. aureus 10; Three-fold, day 0",0/8
same,Dead animals/survivors,"S. aureus 10; Three-fold, day 3",0/8
same,Dead animals/survivors,"S. aureus 10; Three-fold, day 4",1/7
same,Dead animals/survivors,"S. aureus 10; Three-fold, day 6",2/6
same,Dead animals/survivors,"S. aureus 10; Three-fold, day 7",3/5
same,Dead animals/survivors,"S. aureus 10; Three-fold, day 8",3/5
same,Dead animals/survivors,"S. aureus 10; Three-fold, day 9",4/4
same,Dead animals/survivors,"S. aureus 10; Three-fold, day 10",5/3
same,Dead animals/survivors,"S. aureus 10; Three-fold, day 12",5/3
same,Dead animals/survivors,"S. aureus 10; Three-fold, day 14",5/3
same,ED50,S. aureus 10; [8],7.6 mg/kg
same,survival rate,"S. aureus 10; dose of 9–11 mg/kg, single i.v.",~40%
same,Death (%),S. aureus 10; [9],87.5%
same,Survival Rate (%),S. aureus 10; [9],12.5%
same,Death (%),S. aureus 10; [10],75%
same,Survival Rate (%),S. aureus 10; [10],25%
same,Death (%),S. aureus 10; [11],75%
same,Survival Rate (%),S. aureus 10; [11],25%
same,Death (%),S. aureus 10; [12],62.5%
same,Survival Rate (%),S. aureus 10; [12],37.5%
same,Death (%),S. aureus 10; [13],62.5%
same,Survival Rate (%),S. aureus 10; [13],37.5%
same,Death (%),S. aureus 10; [14],75%
same,Survival Rate (%),S. aureus 10; [14],25%
same,LD50,[1],26.2 mg/kg
same,MTD,[1],22.6 mg/kg
same,time of death of animals after drug administration,"SHK mice; intravenous, lethal doses",≤ 15 min
same,LD16,SHK mice,23.4 mg/kg
same,LD84,SHK mice,28.9 mg/kg
same,LD100,SHK mice,30.2 mg/kg
"C[C@H]1COc2c(N3CCN(C)CC3)c(F)cc3c(=O)c(C(=O)O)cn1c23 [Levofloxacin, levofloxacin, reference compound]",ED50,S. aureus 10; [8],3.5 mg/kg
same,Death (%),S. aureus 10; [3],90%
same,Survival Rate (%),S. aureus 10; [3],10%
same,Death (%),S. aureus 10; [6],60%
same,Survival Rate (%),S. aureus 10; [6],40%
same,Death (%),S. aureus 10; [15],40%
same,Survival Rate (%),S. aureus 10; [15],60%
same,Death (%),S. aureus 10; [16],30%
same,Survival Rate (%),S. aureus 10; [16],70%
same,dose that saved the lives of 50% of infected animals,S. aureus 10; single injection,about 4 mg/kg
"CCCn1cc([C+](c2cn(CCC)c3ccccc23)c2cn(C3=C(N)C(=O)NC3=O)c3ccccc23)c2ccccc21.[Cl-] [Compound 2, (1-(4-Amino-2,5-dioxo-2,5-dihydro-1H-pyrrol-3-yl)-1H-indol-3-yl)bis(1-propyl-1H-indol-3-yl) methylium chloride]",ED50,S. aureus 10; [8],18.3 mg/kg
same,Death (%),S. aureus 10; [10],80%
same,Survival Rate (%),S. aureus 10; [10],20%
same,Death (%),S. aureus 10; [17],70%
same,Survival Rate (%),S. aureus 10; [17],30%
same,Death (%),S. aureus 10; [18],60%
same,Survival Rate (%),S. aureus 10; [18],40%
same,Death (%),S. aureus 10; [19],40%
same,Survival Rate (%),S. aureus 10; [19],60%
same,Death (%),S. aureus 10; [20],40%
same,Survival Rate (%),S. aureus 10; [20],60%
same,Death (%),S. aureus 10; [21],20%
same,Survival Rate (%),S. aureus 10; [21],80%
same,Death (%),S. aureus 10; [22],30%
same,Survival Rate (%),S. aureus 10; [22],70%
same,LD50,[1],41.8 mg/kg
same,MTD,[1],34.1 mg/kg
same,lethal dose causing the death of more than 50% of the animals,SHK mice; intravenous,35 to 50 mg/kg
same,time of death of animals after administration,SHK mice; intravenous,in the first two hours after administration
same,LD16,SHK mice,35.8 mg/kg
same,LD84,SHK mice,47.7 mg/kg
same,LD100,SHK mice,50.7 mg/kg
